What is called Ki is the equilibrium dissociation constant of an inhibitor or competing ligand from its target. Read a low Ki as a stronger hold on the target. As a reminder, the EC50 is the midpoint of the concentration-response curve.

These results are taken from patent US9458195B2, “Melanocortin receptor ligands” (Ipsen Pharma S.A.S., priority 2005, dated 2016).

The target of test [1] is T1, hMC1-R (Homo sapiens, UniProt Q01726).
T1 construct: expressed in transfected cells; host or cells: CHO-K1 (membranes)
T1 sequence (Q01726 whole entry): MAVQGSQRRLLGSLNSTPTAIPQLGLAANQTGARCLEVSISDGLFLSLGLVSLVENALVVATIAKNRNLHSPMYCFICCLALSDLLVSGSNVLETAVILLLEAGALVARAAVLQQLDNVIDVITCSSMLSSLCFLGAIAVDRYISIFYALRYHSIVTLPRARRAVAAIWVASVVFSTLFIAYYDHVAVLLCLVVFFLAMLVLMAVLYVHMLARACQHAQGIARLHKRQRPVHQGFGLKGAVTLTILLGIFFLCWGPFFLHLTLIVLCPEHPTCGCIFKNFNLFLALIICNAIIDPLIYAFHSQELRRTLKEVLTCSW
The test is described as follows: Radioligand binding assay, [125I]-NDP-α-MSH competition, hMC1-R. The note with it: CHO-K1 cell membranes. The method, then:
(§1) Radioligand Binding Assays
(§2) Cellular membranes used for the in vitro receptor binding assays were obtained from transgenic CHO-K1 cells stably expressing hMC-R receptor subtypes 1, 3, 4 or 5. […] The pellets were resuspended in the same buffer and centrifuged at 50,000 g for 10 minutes at approximately 4° C. The washed pellets containing the cellular membranes were stored at approximately −80° C.
(§3) Filters were washed three times with 50 mM Tris-HCl at pH 7.4 at a temperature of approximately 0-4° C. and then assayed for radioactivity using a Packard Topcount® scintillation counter. Binding data were analyzed by computer-assisted non-linear regression analysis (XL fit; IDBS).

The target in test [2] is T2, hMC3-R (Homo sapiens, UniProt P41968).
T2 construct: expressed in transfected cells; host or cells: CHO-K1 (membranes)
T2 sequence (P41968 whole entry): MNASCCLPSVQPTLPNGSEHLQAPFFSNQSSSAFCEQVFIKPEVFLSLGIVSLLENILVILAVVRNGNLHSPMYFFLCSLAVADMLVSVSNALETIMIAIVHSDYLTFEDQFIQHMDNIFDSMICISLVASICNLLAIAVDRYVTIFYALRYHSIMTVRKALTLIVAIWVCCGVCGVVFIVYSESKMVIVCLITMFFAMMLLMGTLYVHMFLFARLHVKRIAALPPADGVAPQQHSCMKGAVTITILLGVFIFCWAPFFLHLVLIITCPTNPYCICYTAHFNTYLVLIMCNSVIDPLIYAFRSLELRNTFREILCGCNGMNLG
Nature of the test: Radioligand binding assay, [125I]-NDP-α-MSH competition, hMC3-R. The note with it: CHO-K1 cell membranes. As for the experimental part:
as §1, §2, §3

Test [3] concerns the target T3, hMC4-R (Homo sapiens, UniProt P32245).
T3 construct: expressed in transfected cells; host or cells: CHO-K1 (membranes)
The test is described as follows: Radioligand binding assay, [125I]-NDP-α-MSH competition, hMC4-R. The note with it: CHO-K1 cell membranes. The method, then: as §1, §2, §3

Test [4] has as its target T4, hMC5-R (Homo sapiens, UniProt P33032).
T4 construct: expressed in transfected cells; host or cells: CHO-K1 (membranes)
Nature of the test: Radioligand binding assay, [125I]-NDP-α-MSH competition, hMC5-R. The note with it: CHO-K1 cell membranes. The method, then:
as §1, §2, §3

In test [5] the target is T1, hMC1-R. The test is described as follows: cyclic AMP bioassay (ECL), CHO-K1 cells expressing hMC1-R. It counts as cell-based. The note with it: Table 3B, cAMP.
Description: (§4) Intracellular cyclic AMP (cAMP) levels were determined by an electrochemiluminescence (ECL) assay (Meso Scale Discovery®, Gaithersburg, Md.; referred to hereinafter as MSD). […] Transgenic CHO-K1 cells stably expressing hMC receptor subtypes 1, 3, 4 or 5 were dispensed at a density of approximately 7,000 cells/well in 384-well Multi-Array® plates (MSD) containing integrated carbon electrodes and coated with anti-cAMP antibody. Increasing concentrations of the test compounds were added and the cells were incubated for approximately 40 minutes at approximately 37° C. […] At the end of the second incubation period read buffer (Tris-buffered solution containing an ECL co-reactant and Triton X-100 at ph 7.8) was added and the cAMP levels in the cell lysates were immediately determined by ECL detection with a Sector Imager 6000 Reader® (MSD). Data were analyzed using a computer-assisted non-linear regression analysis (XL fit; IDBS) and reported as either an EC50 value or a Kb value.
The target in test [6] is T2, hMC3-R. Nature of the test: cyclic AMP bioassay (ECL), CHO-K1 cells expressing hMC3-R. The note with it: Table 3B, cAMP. Type of test: cell-based.
Description: as §4
The target in test [7] is T3, hMC4-R. Nature of the test: cyclic AMP bioassay (ECL), CHO-K1 cells expressing hMC4-R. Type of test: cell-based. The note with it: Table 3B, cAMP.
Description: as §4
In test [8] the target is T4, hMC5-R. The test is described as follows: cyclic AMP bioassay (ECL), CHO-K1 cells expressing hMC5-R. Type of test: cell-based. The note with it: Table 3B, cAMP.
Description: as §4

Bridges are numbered along the chain shown (N, C = ends). [ ]: non-standard residue; d: D form. Pen = CC(C)(S)[C@H](N)C(=O)O; Nle = CCCC[C@H](N)C(=O)O; GABA = NCCCC(=O)O

T3 sequence (P32245 whole entry): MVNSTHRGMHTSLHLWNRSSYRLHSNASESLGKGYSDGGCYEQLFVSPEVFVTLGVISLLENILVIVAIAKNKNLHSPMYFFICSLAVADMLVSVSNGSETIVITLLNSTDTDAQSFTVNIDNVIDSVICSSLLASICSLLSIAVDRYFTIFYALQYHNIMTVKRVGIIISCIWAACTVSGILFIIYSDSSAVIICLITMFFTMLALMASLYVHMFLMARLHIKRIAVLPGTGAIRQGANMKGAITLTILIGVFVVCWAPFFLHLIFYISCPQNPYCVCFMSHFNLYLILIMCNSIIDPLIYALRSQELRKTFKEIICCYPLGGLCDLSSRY
T4 sequence (P33032 whole entry): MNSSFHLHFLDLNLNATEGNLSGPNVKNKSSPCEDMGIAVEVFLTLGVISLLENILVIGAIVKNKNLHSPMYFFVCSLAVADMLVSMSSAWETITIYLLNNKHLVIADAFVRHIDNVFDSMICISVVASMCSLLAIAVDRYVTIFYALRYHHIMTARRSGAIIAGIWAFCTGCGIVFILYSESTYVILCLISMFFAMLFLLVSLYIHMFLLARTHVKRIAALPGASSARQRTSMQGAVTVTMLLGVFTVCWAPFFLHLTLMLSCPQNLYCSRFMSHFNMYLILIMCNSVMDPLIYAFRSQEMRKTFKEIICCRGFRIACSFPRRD

Turning to “Ac-[Nle]CH[dF]RW[GABA][Pen]-NH2 (disulfide 2-8)”, the Ki came out at 0.12 nM on hMC1-R [1], 10 nM at hMC3-R [2], 0.43 nM on hMC4-R [3] and 0.42 nM at hMC5-R [4]. For the same substance, the EC50 at hMC1-R [5] was 0.28 nM; on hMC3-R [6], 0.24 nM; at hMC4-R [7] it was 0.028 nM; on hMC5-R [8], 3.9 nM.
